According to US9365540B2, “Benzimidazole derivatives as MCH receptor antagonists” (Takeda Pharmaceutical Company Limited, priority 2012, dated 2016):
Structures can show the parent of a compound that is named as a salt.

Columns and labels:
human MCHR1 = target: T1, human MCHR1 (Homo sapiens, UniProt Q99705); assay: MCH receptor 1 antagonistic activity, Ca2+ mobilization assay; format: cell-based; details: test compound 0.1 μM, human MCHR1-expressing CHO cells (clone #4), ligand MCH(4-19) 2 nM; for inhibition at 0.1 µM: CHO, read-out: Inhibitory rate % (0.1 μM)
T1 construct: expressed in transfected cells; host or cells: CHO dhfr- cells, clone #4
Method: Measurement of MCH Receptor 1 Antagonistic Activity of Test Compound Using Ca^2+ Mobilization Assay Using an expression vector plasmid introduced with human MCHR1 gene for expression in animal cells, human MCHR1 gene was introduced into CHO cells (CHO dhfr^−) by Lipofectamine LTX (Invitrogen). The cells were cultured in selection MEMα medium [445 mL of MEMα medium without nucleic acid and added with 5 mL of Penicillin-Streptomycin (Invitrogen) and 50 mL of dialyzed fetal bovine serum]. Colony 24 clones grown in the selection medium, which were human MCHR1 gene-expressing CHO cell candidates, were selected. […] In the following test, this human MCHR1-expressing CHO cell (clone #4) was used. An integrated dispensing function fluorometer (CellLux, PerkinElmer) was used for Ca^2+ mobilization assay. […] The medium was removed, and the cells were washed with phosphate buffered saline (PBS). […] The plate was set on a plate reader. […] The inhibition rates (%) of test compounds (0.1 μM) as antagonist activity measured using human MCHR1-expressing CHO cells (clone #4) are shown in the following Table 3.

[1] = target: T2, human MCH receptor 1 (MCHR1) (Homo sapiens, UniProt Q99705); assay: human MCH receptor 1 (MCHR1) competitive binding assay with [125I]-MCH(4-19); details: test compound 0.1 μM, human MCHR1-expressing CHO cell membrane fraction, read-out: Binding inhibition rate % (0.1 μM)
T2 construct: expressed in transfected cells; host or cells: CHO cell clone 57 (membrane fraction)
Procedure, shortened: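 Membranes from CHO cells expressing human MCHR1 incubated with [125I]-MCH(4-19) and test compound in 20 mM Tris-HCl pH 7.5/5 mM EDTA with protease inhibitors, 1 hr at room temperature. Bound radioactivity collected on PEI-treated GF/C filters; % inhibition at 0.1 μM compound, nonspecific binding set with cold MCH(1-19).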

T1 sequence (Q99705 whole entry): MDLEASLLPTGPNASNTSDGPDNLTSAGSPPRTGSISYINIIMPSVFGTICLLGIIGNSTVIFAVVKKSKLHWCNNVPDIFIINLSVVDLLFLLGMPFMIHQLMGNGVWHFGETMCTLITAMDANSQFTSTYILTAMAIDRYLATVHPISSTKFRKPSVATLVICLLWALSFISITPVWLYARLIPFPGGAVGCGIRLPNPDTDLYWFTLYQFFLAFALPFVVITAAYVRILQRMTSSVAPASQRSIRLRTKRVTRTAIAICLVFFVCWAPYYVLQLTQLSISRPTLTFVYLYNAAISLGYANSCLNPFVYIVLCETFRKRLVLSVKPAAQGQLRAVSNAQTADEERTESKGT
T2 sequence (Q99705 whole entry): as above

`CCc1nc2ccc(-n3ccc(OCc4nc(C(F)F)cs4)cc3=O)cc2n1C` [Example 284, 4-((4-(Difluoromethyl)-1,3-thiazol-2-yl)methoxy)-1-(2-ethyl-1-methyl-1H-benzimidazol-6-yl)pyridin-2(1H)-one] showed an inhibition at 0.1 µM (human MCHR1) of 83% and an inhibition at 0.1 µM [1] of 37%.

Molecule `Cn1c([C@@H]2C[C@@H]2C(C)(C)O)nc2ccc(-n3ccc(OCc4ccc(Cl)cc4)cc3=O)cc21` (racemic) [Example 80, 4-((4-Chlorobenzyl)oxy)-1-(2-((1RS,2SR)-2-(2-hydroxypropan-2-yl)cyclopropyl)-1-methyl-1H-benzimidazol-6-yl)pyridin-2(1H)-one] has an inhibition at 0.1 µM (human MCHR1) of 99% and an inhibition at 0.1 µM [1] of 91%.

For `CCc1nc2ccc(-n3ccc(OCc4ccsc4)cc3=O)cc2n1C` [Example 235, 1-(2-Ethyl-1-methyl-1H-benzimidazol-6-yl)-4-(3-thienylmethoxy)pyridin-2(1H)-one], the inhibition at 0.1 µM (human MCHR1) was 93% and the inhibition at 0.1 µM [1] was 69%.

`CCCc1nc2ccc(-n3ccc(OCc4ccc(F)cc4)cc3=O)cc2n1C` [Example 64, 4-((4-Fluorobenzyl)oxy)-1-(1-methyl-2-propyl-1H-benzimidazol-6-yl)pyridin-2(1H)-one] was tested, and the inhibition at 0.1 µM (human MCHR1) was 99% and the inhibition at 0.1 µM [1] was 76%.

`Cc1c(C2CC2)nc2ccc(-n3ccc(OCc4ccc(Br)cc4)cc3=O)cn12` [Example 192, 4-((4-Bromobenzyl)oxy)-1-(2-cyclopropyl-3-methylimidazo[1,2-a]pyridin-6-yl)pyridin-2(1H)-one] gave an inhibition at 0.1 µM (human MCHR1) of 98% and an inhibition at 0.1 µM [1] of 85%.

With `Cn1c(C2CC2)nc2ccc(-n3ccc(OCc4coc(Br)c4)cc3=O)cc21` [Example 262, 4-((5-Bromo-3-furyl)methoxy)-1-(2-cyclopropyl-1-methyl-1H-benzimidazol-6-yl)pyridin-2(1H)-one] the inhibition at 0.1 µM (human MCHR1) was 98% and the inhibition at 0.1 µM [1] was 80%.

Molecule `CCc1nc2ccc(-n3ccc(OCc4cc(Cl)cs4)cc3=O)cc2n1C` [Example 236, 4-((4-Chlorothiophen-2-yl)methoxy)-1-(2-ethyl-1-methyl-1H-benzimidazol-6-yl)pyridin-2(1H)-one] has an inhibition at 0.1 µM (human MCHR1) of 96% and an inhibition at 0.1 µM [1] of 76%.

`Cn1c(C2CC2)nc2ccc(-n3ccc(OCc4ccccc4F)cc3=O)cc21` [Example 71, 1-(2-Cyclopropyl-1-methyl-1H-benzimidazol-6-yl)-4-((2-fluorobenzyl)oxy)pyridin-2(1H)-one] gave an inhibition at 0.1 µM (human MCHR1) of 43% and an inhibition at 0.1 µM [1] of 72%.

Work on `CC(=O)c1nc2ccc(-n3ccc(OCc4ccc(F)cc4)cc3=O)cc2n1C` [Example 66, 1-(2-Acetyl-1-methyl-1H-benzimidazol-6-yl)-4-((4-fluorobenzyl)oxy)pyridin-2(1H)-one] yielded an inhibition at 0.1 µM (human MCHR1) of 84% and an inhibition at 0.1 µM [1] of 57%.

`Cn1c(C2CC2)nc2ccc(-n3ccc(COc4ccc(Cl)cc4)cc3=O)cc21` [Example 245, 4-((4-Chlorophenoxy)methyl)-1-(2-cyclopropyl-1-methyl-1H-benzimidazol-6-yl)pyridin-2(1H)-one] showed an inhibition at 0.1 µM (human MCHR1) of 58% and an inhibition at 0.1 µM [1] of 59%.

`Cn1c(-c2cnco2)nc2ccc(-n3ccc(OCc4ccc(F)cc4)cc3=O)cc21` [Example 69, 4-((4-Fluorobenzyl)oxy)-1-(1-methyl-2-(1,3-oxazol-5-yl)-1H-benzimidazol-6-yl)pyridin-2(1H)-one] showed an inhibition at 0.1 µM (human MCHR1) of 58% and an inhibition at 0.1 µM [1] of 65%.

`Cn1c(C2CC2)nc2ccc(-n3ccc(OCc4ccc(Cl)o4)cc3=O)cc21` [Example 202, 4-((5-Chloro-2-furyl)methoxy)-1-(2-cyclopropyl-1-methyl-1H-benzimidazol-6-yl)pyridin-2(1H)-one] gave an inhibition at 0.1 µM (human MCHR1) of 104% and an inhibition at 0.1 µM [1] of 67%.

`Cn1c(C2CC2)nc2ccc(-n3ccc(OCc4cc(Cl)cs4)cc3=O)cc21` [Example 228, 4-((4-Chlorothiophen-2-yl)methoxy)-1-(2-cyclopropyl-1-methyl-1H-benzimidazol-6-yl)pyridin-2(1H)-one] showed an inhibition at 0.1 µM (human MCHR1) of 103% and an inhibition at 0.1 µM [1] of 89%.

`Cc1c(C2CC2)nc2ccc(-n3ccc(OCc4ccc(C(F)F)s4)cc3=O)cn12` [Example 178, 1-(2-Cyclopropyl-3-methylimidazo[1,2-a]pyridin-6-yl)-4-((5-(difluoromethyl)-2-thienyl)methoxy)pyridin-2(1H)-one] gave an inhibition at 0.1 µM (human MCHR1) of 69% and an inhibition at 0.1 µM [1] of 74%.

`Cn1c(C2CC2C#N)nc2ccc(-n3ccc(OCc4ccc(Cl)cc4)cc3=O)cc21` (stereo not drawn) [Example 237, (1R*,2S*)-2-(6-(4-((4-Chlorobenzyl)oxy)-2-oxopyridin-1(2H)-yl)-1-methyl-1H-benzimidazol-2-yl)cyclopropanecarbonitrile hydrochloride] was tested, and the “Inhibitory rate % (0.1 μM)” value (human MCHR1; hydrochloride) was 67% and the inhibition at 0.1 µM [1] was 78%.

`Cn1c(C2CC2)nc2ccc(-n3ccc(OCc4ccc(Br)cn4)cc3=O)cc21` [Example 260, 4-((5-Bromopyridin-2-yl)methoxy)-1-(2-cyclopropyl-1-methyl-1H-benzimidazol-6-yl)pyridin-2(1H)-one] gave an inhibition at 0.1 µM (human MCHR1) of 104% and an inhibition at 0.1 µM [1] of 75%.

With `Cn1c(C2CC2)nc2ccc(-n3ccc(OCc4cc(Br)cs4)cc3=O)cc21` [Example 240, 4-((4-Bromo-2-thienyl)methoxy)-1-(2-cyclopropyl-1-methyl-1H-benzimidazol-6-yl)pyridin-2(1H)-one] the inhibition at 0.1 µM (human MCHR1) was 99% and the inhibition at 0.1 µM [1] was 91%.

`CC(=O)c1nc2ccc(-n3ccc(OCc4ccc(Cl)cc4)cc3=O)cc2n1C` [Example 104, 1-(2-Acetyl-1-methyl-1H-benzimidazol-6-yl)-4-((4-chlorobenzyl)oxy)pyridin-2(1H)-one] showed an inhibition at 0.1 µM (human MCHR1) of 61% and an inhibition at 0.1 µM [1] of 60%.

`Cc1c(C2CC2)nc2ccc(-n3ccc(OCc4cccc(F)c4)cc3=O)cn12` [Example 130, 1-(2-Cyclopropyl-3-methylimidazo[1,2-a]pyridin-6-yl)-4-((3-fluorobenzyl)oxy)pyridin-2(1H)-one] showed an inhibition at 0.1 µM (human MCHR1) of 99% and an inhibition at 0.1 µM [1] of 79%.

`Cc1c(C2CC2)nc2ccc(-n3ccc(OCc4nc(C(F)(F)F)cs4)cc3=O)cn12` [Example 193, 1-(2-Cyclopropyl-3-methylimidazo[1,2-a]pyridin-6-yl)-4-((4-(trifluoromethyl)-1,3-thiazol-2-yl)methoxy)pyridin-2(1H)-one] gave an inhibition at 0.1 µM (human MCHR1) of 99% and an inhibition at 0.1 µM [1] of 89%.

`CC1CC1c1nc2ccc(-n3ccc(OCc4ccc(F)cc4)cc3=O)cc2n1C` (centres unmarked) [Example 43, 4-((4-Fluorobenzyl)oxy)-1-(1-methyl-2-(2-methylcyclopropyl)-1H-benzimidazol-6-yl)pyridin-2(1H)-one] showed an inhibition at 0.1 µM (human MCHR1) of 100% and an inhibition at 0.1 µM [1] of 69%.

Molecule `Cc1c(C2CC2)nc2ccc(-n3ccc(OCc4csc(Cl)c4)cc3=O)cn12` [Example 164, 4-((5-Chlorothiophen-3-yl)methoxy)-1-(2-cyclopropyl-3-methylimidazo[1,2-a]pyridin-6-yl)pyridin-2(1H)-one] has an inhibition at 0.1 µM (human MCHR1) of 102% and an inhibition at 0.1 µM [1] of 92%.

With `Cn1c(C2CC2)nc2ccc(-n3ccc(OCc4nc(CF)cs4)cc3=O)cc21` [Example 270, 1-(2-Cyclopropyl-1-methyl-1H-benzimidazol-6-yl)-4-((4-(fluoromethyl)-1,3-thiazol-2-yl)methoxy)pyridin-2(1H)-one] the inhibition at 0.1 µM (human MCHR1) was 73% and the inhibition at 0.1 µM [1] was 58%.

`Cn1c(C(=O)C2CC2)nc2ccc(-n3ccc(OCc4ccc(F)cc4)cc3=O)cc21` [Example 31, 1-(2-(Cyclopropylcarbonyl)-1-methyl-1H-benzimidazol-6-yl)-4-((4-fluorobenzyl)oxy)pyridin-2(1H)-one] was tested, and the inhibition at 0.1 µM (human MCHR1) was 61% and the inhibition at 0.1 µM [1] was 52%.

`Cn1c(C2CC2)nc2ccc(-n3ccc(OCc4csc(Br)c4)cc3=O)cc21` [Example 250, 4-((5-Bromo-3-thienyl)methoxy)-1-(2-cyclopropyl-1-methyl-1H-benzimidazol-6-yl)pyridin-2(1H)-one] showed an inhibition at 0.1 µM (human MCHR1) of 100% and an inhibition at 0.1 µM [1] of 92%.

For `Cn1c(C2CC2)nc2ccc(-n3ccc(OCc4ccc(C(F)(F)F)o4)cc3=O)cc21` [Example 241, 1-(2-Cyclopropyl-1-methyl-1H-benzimidazol-6-yl)-4-((5-(trifluoromethyl)-2-furyl)methoxy)pyridin-2(1H)-one], the inhibition at 0.1 µM (human MCHR1) was 76% and the inhibition at 0.1 µM [1] was 56%.

In the case of `Cn1c(C2CC2)nc2ccc(-n3ccc(OCc4ccc(C(F)(F)F)s4)cc3=O)cc21` [Example 159, 1-(2-Cyclopropyl-1-methyl-1H-benzimidazol-6-yl)-4-((5-(trifluoromethyl)thiophen-2-yl)methoxy)pyridin-2(1H)-one], the inhibition at 0.1 µM (human MCHR1) is reported as 107% and the inhibition at 0.1 µM [1] is reported as 87%.

`Cc1nc2ccc(-n3ccc(OCc4cc(C(F)(F)F)cs4)cc3=O)cc2n1C` [Example 286, 1-(1,2-Dimethyl-1H-benzimidazol-6-yl)-4-((4-(trifluoromethyl)thiophen-2-yl)methoxy)pyridin-2(1H)-one] gave an inhibition at 0.1 µM (human MCHR1) of 100% and an inhibition at 0.1 µM [1] of 58%.
